Measurements reported in patent US11826402B2, “Combination therapy involving antibodies against claudin 18.2 for treatment of metastatic pancreatic adenocarcinoma” (Astellas Pharma Inc., priority 2013, dated 2023).

Assays:
[1] = system: LVT pancreatic cancer cell lines; test: IMAB362-mediated ADCC assay, LVT pancreatic cancer cell lines and corresponding parental cell lines; format: cell-based, human; conditions: for ADCC EC50 / ADCC Max. lysis: at least 2 donors
Experimental: For ADCC assays pancreatic cancer cell lines were transiently transfected with luciferase RNA. This luciferase RNA (pST1-luc2mut-2 hBgUTR-A121-EciI vector (pST1-109)) was produced with an ARCA cap and dissolved in H2O. RNA was stored in 22 μl aliquots at −80° C. For all pancreas cell lines the optimal electroporation conditions were determined resulting in highest transfection rates and viability of the cells. In each assay cells were detached with PBS/5 mM EDTA and 2.5×10^6 cells dissolved in 250 μl X-Vivo were mixed in ice-cold cuvettes with 10 μg RNA. Cells were immediately electroporated (GenePulser Xcell, Biorad) and resuspended in pre-warmed Assay-medium adjusting the cells to 5×10^5 cells/ml. Tested electroporation conditions were for all cell lines: • EP1: 250 V, 475 μF • EP2: 200 V, 300 μF • EP3: 150 V, 300 μF • EP4: 200 V, 400 μF • EP5: 250 V, 950 μF • Control: 0 V, 0 μF
The viability of the cells was determined directly after electroporation using CASY or by staining cells with Trypan blue and determining the percentage of dead cells in the Neubauer chamber. Cells were seeded in quadruplicates in white 96-well plates (2.5×10^4 cells/well) and incubated for 24 h. Subsequently, luciferase activity was measured in a luminometer (Tecan Infinite200) after addition of luciferin mix for 90 min. Transfection was successful and consequently ADCC measurable, if RLU values >1.000 were obtained.
Pancreatic cancer target cells were seeded two days in advance in flasks to obtain 80-90% confluent cultures on the day ADCC started. […] NUGC-4 sub 10cH11 subE10 Luci #2 cells (8000 cells/well) were seeded in addition as positive controls in all assays. Cells were cultivated for 4-6 h before addition of antibody and purified PBMCs. PBMCs were prepared from fresh human buffy coat obtained from healthy donors. About 3× 20-25 ml blood was diluted (1:2) with PBS and carefully layered on 4×15 ml Ficol-Paque Plus (GE Healthcare) in 50 ml Falcon tubes. Gradients were centrifuged (25 min, 700 g). After centrifugation, peripheral blood mononuclear cells (PBMC) were collected from the interphase, washed in PBS/2 mM EDTA, centrifuged (5 min, 468 g), again resuspended in PBS/2 mM EDTA and centrifuged (10 min, 208 g) to remove the platelets. The pellets were resuspended in 50 ml PBS/2 mM EDTA and cells were counted. PBMCs were centrifuged (5 min, 468 g) and resuspended in X-Vivo-15 culture medium at a concentration of 1.6×10^7 cells/ml for addition to the pancreas cells and 1.28×10^7 cells/ml for addition to the NUGC-4 sub 10cH11 subE10 Luci #2 cells.
Of each dilution 25 μl was added in quadruplicates to the target cells. PBS without antibodies was added in the medium and lysis control wells. Subsequently, 25 μl PBMCs were added to each well (E:T ratio=40:1) and plates were incubated for 24 h±1 h at 37° C., 5% CO2.
The next day, 10 μl 8% Triton X100/PBS solution was added to the lysis control wells and 10 μl PBS in all other wells. Finally, 50 μl freshly prepared luciferin stock solution was added (160 mM HEPES, 1×PBS, 3.84 mg/ml D-Luciferin (BD Biosciences)) to each well and plates were incubated for 80 min at RT in the dark. Luminescence resulting from the oxidation of […] by the luciferase of viable cells was measured using a microplate-reader (Infinite200, Tecan, Switzerland). Percentage of cellular cytotoxicity was calculated using the following formula: Specific killing (%)=100−[(RLUsample−RLUtriton)/(RLUmedium ctrl−RLUtriton)×100]
ADCC analyses were also performed with LVT pancreatic cancer cell lines and their corresponding parental cell lines (FIG. 22B-F).

[2] = system: CLDN18.2 on the cell surface of pancreatic cancer cell lines; test: Flow cytometry (FACS) of IMAB362 on pancreatic cancer cell lines; format: binding, human; conditions: 2E5 cells/100 μl with 50 μg/ml IMAB362
Experimental: Cells were harvested with PBS/5 mM EDTA or Trypsin/EDTA from an exponentially growing culture at 70-85% confluency. Cells were counted, centrifuged for 5 min (468 g) and the pellet was resuspended in FACS buffer (2% FCS, 0.1% sodium azide in PBS) adjusting the concentration to 2×10^6/ml. 100 μl cells were plated in round bottom 96-well plates and again centrifuged (5 min, 468 g). […] Then, 200 μl FACS buffer was added to each well and plates were centrifuged (5 min, 468 g). The supernatant was removed and washing was repeated. Secondary goat anti-human antibodies (FC specific, F(ab′)2 conjugated with APC (Dianova)) were diluted (1:100) in FACS buffer and 30 μl was added to each well. Plates were incubated for 30 min at 4° C. After incubation plates were washed again two times with 200 μl FACS buffer and the pellet was finally resuspended in 100 μl FACS buffer for measurement FACS Array Bioanalyzer (BD) according to GA_018_BD FACS Array bioanalyzer.

Substance: IMAB362: chimeric IgG1 antibody directed against CLDN18.2, developed by Ganymed Pharmaceuticals AG
- ADCC EC50 ([1]; BxPC3 (ATCC)): n.m.
- ADCC Max. lysis ([1]; BxPC3 (ATCC)): n.m.
- ADCC EC50 ([1]; BxPC3 (ECACC)): n.m.
- ADCC EC50 ([1]; BxPC3 LVT): 0.0477 ± 0.0191 µg/mL
- ADCC Max. lysis ([1]; BxPC3 LVT): 90.6 ± 6.4%
- ADCC EC50 ([1]; CAPAN1-LVT): 0.06503 ± 0.0351 µg/mL
- ADCC Max. lysis ([1]; CAPAN1-LVT): 92.6 ± 5.5%
- ADCC EC50 ([1]; CAPAN1): n.m.
- ADCC Max. lysis ([1]; CAPAN1): n.m.
- ADCC EC50 ([1]; DANG-LVT): 0.0523 ± 0.0277 µg/mL
- ADCC Max. lysis ([1]; DANG-LVT): 85.9 ± 11.7%
- ADCC EC50 ([1]; HPAC-LVT): 0.1168 ± 0.1054 µg/mL
- ADCC Max. lysis ([1]; HPAC-LVT): 76.2 ± 19.4%
- ADCC Max. lysis ([1]; HPAC): 0-22.2%
- target dependence of ADCC ([1]; LVT cell lines versus CLDN18.2 negative parental cell lines): only CLDN18.2 positive target cells are killed
- ADCC killing ([1]; LVT pancreas CA cell lines): killed upon addition of small amounts of antibody at high rates
- ADCC EC50 ([1]; MiaPaCa2-LVT): 0.0234 ± 0.0123 µg/mL
- ADCC Max. lysis ([1]; MiaPaCa2-LVT): 78.1 ± 6.0%
- ADCC EC50 ([1]; MiaPaCa2): n.m.
- ADCC EC50 ([1]; Patu8902-LVT): 0.0492 ± 0.0862 µg/mL
- ADCC Max. lysis ([1]; Patu8902-LVT): 74.1 ± 16.4%
- ADCC EC50 ([1]; Patu8902): n.m.
- ADCC EC50 ([1]; Suit2-LVT): 0.0732 ± 0.0147 µg/mL
- ADCC Max. lysis ([1]; Suit2-LVT): 81.2 ± 7.6%
- ADCC EC50 ([1]; Suit2): n.m.
- ADCC Max. lysis ([1]; Suit2): n.m.
- ADCC EC50 ([1]; YAPC-LVT): 0.0295 ± 0.0157 µg/mL
- ADCC Max. lysis ([1]; YAPC-LVT): 91.5 ± 6.3%
- ADCC EC50 ([1]; YPAC): n.m.
- ADCC Max. lysis ([1]; YPAC): n.m.
- CLDN18 surface expression (FACS) ([2]; AsPC1): 0.14%
- CLDN18 surface expression (FACS) ([2]; BxPC3 (ATCC)): 1.16%
- CLDN18 surface expression (FACS) ([2]; BxPC3 (ECACC)): 0.90%
- CLDN18 surface expression (FACS) ([2]; CAPAN1): 0.54%
- CLDN18 surface expression (FACS) ([2]; CFPAC1): 0.55%
- CLDN18 surface expression (FACS) ([2]; DANG): 1.19%
- CLDN18 surface expression (FACS) ([2]; HPAC): 0.81%
- CLDN18 surface expression (FACS) ([2]; HPAFII): 10.00%
- CLDN18 surface expression (FACS) ([2]; HUP-T3): 0.23%
- CLDN18 surface expression (FACS) ([2]; HUP-T4): 5.30%
- CLDN18 surface expression (FACS) ([2]; KP-2): 0.54%
- CLDN18 surface expression (FACS) ([2]; MiaPaCa2): 0.22%
- CLDN18 surface expression (FACS) ([2]; Panc01): 65%
- CLDN18 surface expression (FACS) ([2]; Panc03.27): 7.30%
- CLDN18 surface expression (FACS) ([2]; Panc04.03): 1.38%
- CLDN18 surface expression (FACS) ([2]; Panc05.04): 15%
- CLDN18 surface expression (FACS) ([2]; Patu8902): 0.39%
- CLDN18 surface expression (FACS) ([2]; Patu8988T): 6.00%
- CLDN18 surface expression (FACS) ([2]; SW1990): 2.53%
- CLDN18 surface expression (FACS) ([2]; Su86.86): 1.51%
- CLDN18 surface expression (FACS) ([2]; Suit2): 0.41%
- CLDN18 surface expression (FACS) ([2]; YPAC): 0.23%
